From publication PMC11394700, “Characterization of Stealth Liposome-Based Nanoparticles Encapsulating the ACAT1/SOAT1 Inhibitor F26: Efficacy and Toxicity Studies In Vitro and in Wild-Type Mice” (International Journal of Molecular Sciences, 2024)
Values joined by “and” are separate entries in the source; they are usually repeats but may differ in a detail not shown here. Equal entries are not always repeated. Where two headings read alike, the source gives them in different places.

Key:
[1] = system: rat liver microsomal ACAT; design: method as in earlier work; conditions: F26 = compound 3 in ref; cited from earlier work
ACAT1 = target: T1, ACAT1 (Mus musculus, UniProt Q61263); assay: ACAT activity by [3H] oleate pulse assay in MEFs; assay type: cell-based
T1 construct: MEFs predominantly express ACAT1, not ACAT2; endogenous in cells; host or cells: mouse embryonic fibroblasts (MEFs)
T1 sequence (Q61263 1-540): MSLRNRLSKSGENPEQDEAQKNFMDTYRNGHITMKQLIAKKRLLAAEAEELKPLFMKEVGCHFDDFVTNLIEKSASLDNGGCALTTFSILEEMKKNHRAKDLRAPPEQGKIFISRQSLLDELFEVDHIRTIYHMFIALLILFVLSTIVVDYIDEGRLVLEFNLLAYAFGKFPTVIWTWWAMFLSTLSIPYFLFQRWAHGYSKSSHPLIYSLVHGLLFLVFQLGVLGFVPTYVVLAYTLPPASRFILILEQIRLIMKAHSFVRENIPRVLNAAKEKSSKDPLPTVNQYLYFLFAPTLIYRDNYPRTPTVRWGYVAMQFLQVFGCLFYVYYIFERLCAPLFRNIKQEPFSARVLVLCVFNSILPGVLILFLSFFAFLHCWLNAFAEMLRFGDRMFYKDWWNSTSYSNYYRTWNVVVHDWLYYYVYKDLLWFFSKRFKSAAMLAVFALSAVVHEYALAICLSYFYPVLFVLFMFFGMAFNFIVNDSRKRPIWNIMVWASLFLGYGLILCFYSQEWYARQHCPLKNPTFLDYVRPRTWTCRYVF
Method: The [^3H] oleate pulse assay was performed as described [76, 77]. […] For the washout assay, cells were washed and incubated with a conditioned drug-free medium for a given amount of time. After the incubation, cells were pulsed with 10 µL of 10 mM [^3H] oleate/BSA (containing 4 µCi) for 2 h in a 37 °C water bath with 5% CO2. At the end of the pulse period, cells were placed on ice, washed three times with cold PBS, and lysed with 0.2 M NaOH. Lysates were aliquoted first for protein measurement and the remaining extract was neutralized to pH 7.0 by adding 3 M HCl and 1 M KH2PO4 at pH 7. Lipids were then extracted with chloroform:methanol (2:1) and water. Samples were vortex-mixed and centrifuged at 500 rpm for 10 min. The top phase was removed, and the bottom phase was blow-dried by nitrogen gas. Dried samples were dissolved in ethyl acetate and spotted on a thin-layer chromatography (TLC) plate (Miles Scientific Silica gel HL, Catalog No. P46911). The solvent system used was petroleum ether:ethyl ether:acetic acid (90:10:1). The cholesteryl ester band with an Rf value at 0.9 was visualized by iodine staining, scraped from the plate, and measured with a scintillation counter.

[2] = Plasma and brain pharmacokinetics after single IV dose (LC-MS/MS); assay type: in vivo, mouse; conditions: WT mice
Method: After intravenous administration of F26, mice were perfused with PBS at scheduled time points. Plasma and brain tissue were collected, flash-frozen in liquid nitrogen, and stored at −80 °C until analysis. […] Calibrator and quality control (QC) samples were prepared in the appropriate C57BL/6 mouse matrix: pooled plasma (anticoagulant: K3-EDTA, Innovative Research) and brain homogenate. The brain tissues were homogenized at 0.1 g/mL in deionized water using stainless-steel beads and a Next Advance Bullet Blender. Samples were cleaned up and analytes were extracted using protein precipitation followed by nitrogen dry down and reconstitution. […] Samples were vortex-mixed for 5 min then centrifuged for 10 min at 21,130× g and a total of 200 µL of clear supernatant was transferred to new tubes and dried under nitrogen in a water bath at 45 °C. The dried residues were reconstituted in 80:20 methanol:water (plasma: 400 µL, brain: 200 µL), vortex-mixed for 15 s and centrifuged at 21,130× g for 5 min. Finally, 100 µL of supernatant was transferred to amber autosampler vials, and 2 µL was injected into the LC-MS/MS system. For the quantitative analysis, each sample was prepared in triplicate and each replicate was injected onto the LC-MS/MS system three times. Liquid chromatography was performed on a Thermo Scientific Vanquish Flex UHPLC system using buffers A = 0.1% formic acid in water and B = 0.1% formic acid in methanol. A Thermo Scientific Accucore C18 50 × 2.1 mm 2.6 µm column fitted with a 10 × 2.1 mm 2.6 µm C18 guard cartridge maintained at 40 °C was used. […] A Thermo Scientific TSQ Quantis triple quadrupole mass spectrometer was operated in positive ion mode with a collision pressure of 1.5 mTorr for quantification. […] The heated electrospray ionization (H-ESI) source was operated with a spray voltage of 3500 V, vaporizer temperature 400 °C, ion transfer tube temperature 300 °C, sheath gas 23, aux gas 12 and ion sweep gas 0.5 (gases are arbitrary units). The quantitative range for F26 was 0.5–500 ng/mL for plasma samples and 0.3–200 ng/mL for brain samples. QC samples were prepared at 1.5, 150, and 400 ng/mL for plasma and at 0.9, 80, and 150 ng/mL for brain.

[3] = XTT cytotoxicity assay in MEFs; assay type: cell-based, mouse; conditions: mouse; MEFs, 150 µM, 24 h; read-out: Cell viability (XTT)
Method: (§1) An XTT cell proliferation assay kit (measures mitochondrial redox activity in metabolically active cells) was purchased from ATCC (Catalog No. 30-1011K, Manassas, VA, USA). Cell toxicity assessment was performed according to the manufacturer’s protocol. MEFs were seeded in a 96-well plate, 2500 cells per well, and cultured in full growth medium for 24 h. […] After the treatment, XTT reagent was added to each well, and the plates were incubated at 37 °C for 4 h. Following the incubation, absorbance was measured by using a BioTek Synergy Neo2 Hybrid Multimode Reader (BioTek, Winooski, VT, USA).

MEFs = assay: XTT cytotoxicity assay in MEFs; assay type: cell-based, mouse; conditions: for Effect on cell viability (XTT): MEFs, concentrations below 50 µM, 24 h
Method: as §1

[4] = system: primary mouse neuronal cells; conditions: concentrations up to 10 µM; cited from earlier work
[5] = WT mice, individual samples, cited from earlier work
human ACAT2 = conditions: cited from earlier work
[6] = 4 h after single IV NP F26 51 mg/kg, individual samples, 51 mg/kg
[7] = 12 h after single IV NP F26 51 mg/kg, individual samples, 51 mg/kg
[8] = 24 h after single IV NP F26 51 mg/kg, individual samples, 51 mg/kg
[9] = 48 h after single IV NP F26 51 mg/kg, individual samples, 51 mg/kg
[10] = 4 h after single IV NP F12511 46 mg/kg
[11] = 12 h after single IV NP F12511 46 mg/kg
[12] = 24 h after single IV NP F12511 46 mg/kg

## CCCCCCCCCCCCS(=O)(=O)[C@](F)(C(=O)Nc1cc(C)c(O)c(C)c1C)c1ccccc1 [F26]
[1]
  Potency for inhibiting rat liver microsomal ACAT: more potent than F12511
ACAT1; [3H] oleate pulse assay, MEFs (predominantly ACAT1), read-out: IC50 against ACAT in MEFs
  IC50: 3 nM
ACAT1; from IC50 values in MEFs
  Potency as ACAT1 inhibitor compared to F12511 (fold): close to seven-fold
[2]; [6]
  Brain Concentration: 1148 ng/g
  Brain-to-Plasma Ratio: 0.069
  Plasma Concentration: 16,540 ng/mL
[2]; [7]
  Brain Concentration: 529 ng/g
  Brain-to-Plasma Ratio: 0.125
  Plasma Concentration: 4243 ng/mL
[2]; [8]
  Brain Concentration: 347 ng/g
  Brain-to-Plasma Ratio: 0.283
  Plasma Concentration: 3218 ng/mL and 1226 ng/mL
[2]; [9]
  Brain Concentration: 86 ng/g
  Brain-to-Plasma Ratio: 1.377
  Plasma Concentration: 62 ng/mL
[2]; C57BL/6, mouse, brain, iv, 51 mg/kg, 4 h after single IV NP F26 51 mg/kg, individual samples, read-out: Brain Concentration
  concentration at 4 h: 1120 ng/g
[2]; C57BL/6, mouse, brain, iv, 51 mg/kg, 4 h after single IV NP F26 51 mg/kg, individual samples, read-out: Brain-to-Plasma Ratio
  Kp at 4 h: 0.061
[2]; C57BL/6, mouse, brain, iv, 51 mg/kg, 12 h after single IV NP F26 51 mg/kg, individual samples, read-out: Brain Concentration
  concentration at 12 h: 671 ng/g
[2]; C57BL/6, mouse, brain, iv, 51 mg/kg, 12 h after single IV NP F26 51 mg/kg, individual samples, read-out: Brain-to-Plasma Ratio
  Kp at 12 h: 0.147
[2]; C57BL/6, mouse, brain, iv, 51 mg/kg, 24 h after single IV NP F26 51 mg/kg, individual samples
  concentration at 24 h: 571 ng/g
[2]; C57BL/6, mouse, brain, iv, 51 mg/kg, 24 h after single IV NP F26 51 mg/kg, individual samples, read-out: Brain-to-Plasma Ratio
  Kp at 24 h: 0.178
[2]; C57BL/6, mouse, brain, iv, 51 mg/kg, 48 h after single IV NP F26 51 mg/kg, individual samples, read-out: Brain Concentration
  concentration at 48 h: 59 ng/g
[2]; C57BL/6, mouse, brain, iv, 51 mg/kg, 48 h after single IV NP F26 51 mg/kg, individual samples, read-out: Brain-to-Plasma Ratio
  Kp at 48 h: 1.6
[2]; C57BL/6, mouse, brain, single IV NP F26 51 mg/kg, read-out: Cmax in brain
  Cmax: 1130 ng/g
[2]; C57BL/6, mouse, brain, single IV NP F26 51 mg/kg, read-out: T1/2 in brain (converted)
  half-life: 10.5 h
[2]; C57BL/6, mouse, brain, single IV NP F26 51 mg/kg, read-out: Tmax in brain
  Tmax: 4 h
[2]; C57BL/6, mouse, plasma, iv, 51 mg/kg, 4 h after single IV NP F26 51 mg/kg, individual samples, read-out: Plasma Concentration
  concentration at 4 h: 18500 ng/mL
[2]; C57BL/6, mouse, plasma, iv, 51 mg/kg, 12 h after single IV NP F26 51 mg/kg, individual samples, read-out: Plasma Concentration
  concentration at 12 h: 4570 ng/mL
[2]; C57BL/6, mouse, plasma, iv, 51 mg/kg, 48 h after single IV NP F26 51 mg/kg, individual samples, read-out: Plasma Concentration
  concentration at 48 h: 37 ng/mL
[2]; C57BL/6, mouse, plasma, single IV NP F26 51 mg/kg, non-compartmental, n = 2, read-out: Tmax in plasma
  Tmax: 4 h
[2]; C57BL/6, mouse, plasma, single IV NP F26 51 mg/kg, read-out: AUClast in plasma
  AUC(0-t): 229 µg·h/mL
[2]; C57BL/6, mouse, plasma, single IV NP F26 51 mg/kg, read-out: Cmax in plasma
  Cmax: 17500 ng/mL
[2]; C57BL/6, mouse, plasma, single IV NP F26 51 mg/kg, read-out: T1/2 in plasma (converted)
  half-life: 4.75 h
[2]; single IV NP F26 51 mg/kg
  AUClast in brain: 23,398.14 ng.h/g
[3]
  viability at 24 h, 150 µM: 81%
MEFs; 50 µM or higher vs IC50 in MEFs
  Concentration required to induce cell toxicity relative to that for ACAT1 inhibition: over 1000 times
MEFs
  Effect on cell viability (XTT): neither F12511 nor F26 affected cell viability

## CCCCCCCCCCCCS[C@H](C(=O)Nc1cc(C)c(O)c(C)c1C)c1ccccc1 [F12511, eflucimibe]
[4]
  Toxicity in primary mouse neuronal cells: no detectable toxicity
MEFs
  Effect on cell viability (XTT): neither F12511 nor F26 affected cell viability
[5]; [10]
  Brain Concentration: 56 ng/g and 83 ng/g and 98 ng/g and 95 ng/g
  Plasma Concentration: 11,185 ng/mL and 13,184 ng/mL and 12,883 ng/mL and 31,224 ng/mL
[5]; [11]
  Brain Concentration: 25 ng/g and 26 ng/g
  Plasma Concentration: 345 ng/mL and 487 ng/mL
[5]; [12]
  Brain Concentration: 7 ng/g and 9 ng/g
  Plasma Concentration: 101 ng/mL and 21 ng/mL
Human ACAT2
  IC50: 110 nM
